According to patent EP3878462B1 (priority 2015, dated 2017):
Like-named read-outs stand apart in the source and are kept apart here. Each block holds one molecule with its values, some of them ahead of it.

What was measured:
[1] = test system: L1210 leukemia cells; test: Survival of mice transplanted with L1210 leukemia cells; format: in vivo, DBA2 mice; conditions: single agent: AraC 1000 mg/kg IP Days 2, 5, 8, or DNase II 15 or 45 mg/kg/day IP; Figure 4
Experimental: Treatment with DNase and AraC was initiated on Day 1 of experiment. Cytosine arabinoside (AraC; Cytosar; Pfizer) was injected IP at a dose of 1000 mg/kg on Days 2, 5 and 8. The injected doses were considered adequate for the model and injection route based on prior experiments (13-14). DNase II (Wornington) was injected IP at doses of 15 mg/kg/day and 45 mg/kg/day on Days 1, 3, 5, 8, 10, 12, 15, 17, and 19.
Animals were randomized into 6 experimental groups of 6 mice per group as follows: • 1. Group I: negative control (no treatment); • 2. Group II: positive control (animals treated with AraC); • 3. Group III: animals treated with AraC and 15 mg/kg DNase; • 4. Group IV: animals treated with AraC and 45 mg/kg DNase; • 5. Group V: animals treated with 15 mg/kg DNase, no AraC; • 6. Group VI: animals treated with 45 mg/kg DNase, no AraC.

[2] = Etoposide 200 mg/kg + 5-FU 400 mg/kg per os, treatment 50 mg/kg IV
Experimental: On Day 1, Etoposide (LANCE) 200 mg/kg and 5-fluorouracil (5-FU; EBEWE) 400 mg/kg were given orally via feeding needle in 500 pl of a 9% glucose solution. Animals were divided into 4 groups of 16 rats each. […] Group I: IV placebo (WFI); • 2. Group II: human recombinant DNase I (Pharmsynthez OJSC) at 1.5 mg/kg (3000 KU/kg) dose IV; • 3. Group III: human recombinant DNase I (Pharmsynthez OJSC) at 50 mg/kg (100000 KU/kg) dose IV; • 4. Group IV: cimetidine solution (Gedeon Richter) at 50 mg/kg dose IV.
36 hours later, all animals were euthanized and their stomachs were removed and analyzed for the presence of erosions and hemorrhages using an automated video analyzer system.

[3] = for Body weight of surviving rats: Doxorubicin 3.75 mg/kg plus DNase I 15 mg/kg/day IP or placebo; for Number of dead/out of total in group: monitored 2 weeks
Text: Group I: control group (no Doxorubicin, no DNase); • 2.
Animals were monitored during 2 weeks from the beginning of experiment for survival and weight.

[4] = surviving rats, Day 14; Doxorubicin 3.75 mg/kg plus DNase I 15 mg/kg/day IP or placebo
Experimental: 42 Wistar male rats (180-200 g) were used in this experiment (obtained from Stolbovaya nursery of Russian Academy of Medical Sciences). Animals were kept under standard conditions with free access to food and drinking water. Animals were randomized into 7 groups (6 animals in each group) as follows: • 1. Group I: control group (no Doxorubicin, no DNase); • 2. Group II: animals treated by daily intravenous (IV) injections of Doxorubicin (LENS) at 3.75 mg/kg/day dose for 5 days plus daily intraperitoneal (IP) injections of human recombinant DNase I (Pharmsynthez OJSC) at 15 mg/kg/day dose (30000 KU/kg/day); Doxorubicin and DNase I injections were administered at the same time; • 3. Group III: animals treated by daily IV injections of Doxorubicin (LENS) at 3.75 mg/kg/day dose for 5 days plus daily IP injections of placebo (water for injection [WFI]); • 4. Group IV: animals treated by daily IV injections of Doxorubicin (LENS) at 7.5 mg/kg/day dose for 5 days plus daily IP injections of human recombinant DNase I (Pharmsynthez OJSC) at 15 mg/kg/day dose (30000 KU/kg/day); Doxorubicin and DNase I injections were administered at the same time; • 5. Group V: animals treated by daily IV injections of Doxorubicin (LENS) at 7.5 mg/kg/day dose for 5 days plus daily IP injections of placebo (WFI); • 6. Group VI: animals treated by daily IV injections of Doxorubicin (LENS) at 10.0 mg/kg/day dose for 5 days plus daily IP injections of human recombinant DNase I (Pharmsynthez OJSC) at 15 mg/kg/day dose (30000 KU/kg/day); Doxorubicin and DNase I injections were administered at the same time; • 7. Group VII: animals treated by daily IV injections of Doxorubicin (LENS) at 10.0 mg/kg/day dose for 5 days plus daily IP injections of placebo (WFI).

[5] = test system: Thymocytes; test: Con A-induced lymphocyte blast transformation of thymocytes from paclitaxel-treated mice (3H thymidine incorporation); format: in vivo, (CBAxC57Bl6) F1 mice; conditions: thymocytes collected 24 hours after paclitaxel 20 mg/kg IV, with or without DNase gamma 2 mg/kg IP 1 hour later, scintillation counts
Experimental: 10 male 6-week-old (CBAxC57Bl6) F1 mice (obtained from Rappolovo animal house) were given a single 20 mg/kg dose of paclitaxel (Paclitaxel-Teva) IV. A group of 5 paclitaxel treated mice were injected IP 1 hour later with recombinant mouse DNase gamma (USCN Life Science Inc.) at 2 mg/kg dose IP. A group of 5 […] mice were injected IP at the same time with 1 ml of placebo (WFI) to serve as the control. All mice were killed 24 hours later by cervical dislocation. The thymuses from each group were collected and homogenized in a separator in RPMI 1640 media supplemented with 10% fetal calf serum. The suspension of thymocytes was filtered and sedimented in a centrifuge at 400xg for 2 minutes and then resuspended with the same media. Thymocytes were plated into 96 well plates (900,000 cells per well in 200 pl of RPMI 1640 supplemented with 10% fetal calf serum (FCS)) and incubated for 32 hours at 37°C, 100% humidity and 5% COz atmosphere. Each well was then supplemented with ^3H thymidine (UC/10pl/well) and Concanavalin A (ConA; 50pl; 1.25 pg/ml). After 24 hours of further incubation, thymocytes were harvested and dried. Labeled ^3H thymidine incorporation was measured using a Beckman scintillation counter.

[6] = Doxorubicin 3.75 mg/kg/day IV for 5 days plus DNase I 15 mg/kg/day IP or placebo (WFI)
[7] = Doxorubicin 7.5 mg/kg/day IV for 5 days plus DNase I 15 mg/kg/day IP or placebo (WFI)
[8] = Doxorubicin 10.0 mg/kg/day IV for 5 days plus DNase I 15 mg/kg/day IP or placebo (WFI)

SMILES: Nc1ccn([C@@H]2O[C@H](CO)[C@@H](O)[C@@H]2O)c(=O)n1 [AraC, cytosine arabinoside]
survival rates [1]: better survival rates versus non-treated mice

Median number of lesions [2]: 2.5±1.1
Number of lesion free animals (percent) [2]: 62.5%
Total number of lesions per group ([2]; 16 animals, 36 hours later): 40
Number of lesion free animals ([2]; of 16 animals): 10
SMILES: CN/C(=N/CCSCc1nc[nH]c1C)NC#N [Cimetidine, cimetidine]

SMILES: COc1cccc2c1C(=O)c1c(O)c3c(c(O)c1C2=O)C[C@@](O)(C(=O)CO)C[C@@H]3O[C@H]1C[C@H](N)[C@H](O)[C@H](C)O1 [Doxorubicin]
Body weight of surviving rats ([3]; Baseline (before doxorubicin)): 164 ± 6 grams
Body weight of surviving rats ([3]; Day 4): 143 ± 6 grams
Body weight of surviving rats ([3]; Day 7): 151 ± 7 grams
Body weight of surviving rats ([3]; Day 14): 156 ± 6 grams
Median survival of deceased rats [3, 6]: 12 ± 2.1 days
Number of dead/out of total in group [3, 6]: 3/6
Median survival of deceased rats [3, 7]: 8.2 ± 1.0 days
Number of dead/out of total in group [3, 7]: 5/6
Median survival of deceased rats [3, 8]: 6.6 ± 0.9 days
Number of dead/out of total in group [3, 8]: 6/6
Basophils [4]: 0%
Eosinophils [4]: 2.4±0.3%
Glucose [4]: 6.1 ± 0.2 mmol/L
Haemoglobin [4]: 9.5±0.7 G%
Hematocrit [4]: 30.5±2.2%
K [4]: 5.6 ± 0.3 mmol/L
Lymphocytes [4]: 82.3±2.2%
Monocyte [4]: 2.3±0.5%
Na [4]: 144 ± 2 mmol/L
Plasmatic cells [4]: 1.3±0.5%
Platelets [4]: 340±25 10^9/L
Protein [4]: 54.7 ± 7.3 g/L
RBC sedimentation count [4]: 24.1±4.5 mm/h
Segmented neutrophils [4]: 11.6±1.3%
Total cholesterol [4]: 1.10 ± 0.29 mmol/L
Total lipids [4]: 2.06 ± 0.27 g/L
Urea [4]: 7.21 ± 0.3 mmol/L
WBC [4]: 4.9±0.2 10^9/L

SMILES: CC(=O)O[C@H]1C(=O)[C@@]2(C)[C@H]([C@H](OC(=O)c3ccccc3)[C@]3(O)C[C@H](OC(=O)[C@H](O)[C@@H](NC(=O)c4ccccc4)c4ccccc4)C(C)=C1C3(C)C)[C@]1(OC(C)=O)CO[C@@H]1C[C@@H]2O [Paclitaxel, paclitaxel]
Con A-induced ^3HT incorporation ([5]; ConA): 1686±142 CPM
Basal ^3HT incorporation [5]: 277±21 CPM
